Measurements from patent publication US12428413B2 (CHDI Foundation, Inc., priority 2019, dated 2025).
Read-outs that look alike come from different tables or passages of the source.

Key:
[1] = system: cellular ROCK activity (cofilin phosphorylation at Ser3) in A7r5 rat smooth muscle cells; test: Cellular ROCK activity: cofilin (Ser3) phosphorylation, In-Cell Western assay; type: cell-based; details: 1 hour compound incubation, phospho-cofilin (Ser3), read-out: CELL_IC50
Procedure: The potency of Rho-associated protein kinase (ROCK) inhibitors was quantified by measuring cofilin phosphorylation levels at Serine 3 (Ser3) as a measure of cellular ROCK activity by In-Cell Western assay. […] The assay plate was imaged and quantified on the Odyssey imager (LICOR Biosciences).
ROCK inhibitor compound plate preparation. […] Stock compounds and control are added directly to ECHO plate (Labcyte) by Janus.
A7r5 cell culture and plating. A7r5 cells were cultured according to standard cell culture protocols in A7r5 growth media (DMEM with Glutamax and 10% FBS). […] 45 μl of re-suspended A7r5 cells were plated at 3000 cells/well in a sterile, μclear, black, F-bottom, 384-well microplate (Greiner bio-one). Seeded cells allowed to settle in wells on the bench for 1 hour before incubation at 37° C., 5% CO2 overnight.
Assay reagent and antibody preparations. Wash buffer was prepared by addition of Tween-20 to Dulbecco's Phosphate Buffered Saline (DPBS) (1×) without calcium and magnesium to make 1% Tween-20 as final concentration. Blocking buffer was prepared by addition of TritonX-100 to SeaBlock buffer (ThermoFisher) to make 0.3% TritonX-100 as final concentration. […] Secondary antibody mix was prepared by diluting donkey anti-rabbit 800CW antibody (LICOR Biosciences) 1:1000 in SeaBlock buffer.
Assay procedure. Compound plate was diluted by addition of 19 μl/well compound dilution buffer (DMEM with Glutamax) using 125 μl 16-channel Matrix electronic pipette. 5 μl diluted compound was stamped from compound plate to assay plate containing A7r5 cells using Bravo (384-well head from Agilent) liquid handler and incubated at 37° C., 5% CO2 for 1 hour. Cells were fixed by addition of 5 μl 37% formaldehyde using 125 μl 16-channel Matrix electronic pipette and incubation for 20 min at room temperature. The assay plate was washed 5× with 60 μl/well wash buffer. […] Next, the assay plate was sealed, centrifuged at 1000 rpm for 5 seconds and incubated at 4° C. overnight on an orbital shaker at 300 rpm. […] The assay plate was centrifuged at 1000 rpm for 5 seconds and incubated on an orbital shaker at 300 rpm for 60 min at room temperature. Finally, assay plate was washed and wells left empty before measurement of 700 nm and 800 nm fluorescence intensities on Odyssey imager set at 4.0 mm focus offset.

[2] = biological target: human catalytic domain ROCK II protein (amino acids 5-554) with a N-terminal GST tag (Homo sapiens, UniProt O75116); test: biochemical
Sequence of human catalytic domain ROCK II protein (amino acids 5-554) with a N-terminal GST tag (O75116 5-554): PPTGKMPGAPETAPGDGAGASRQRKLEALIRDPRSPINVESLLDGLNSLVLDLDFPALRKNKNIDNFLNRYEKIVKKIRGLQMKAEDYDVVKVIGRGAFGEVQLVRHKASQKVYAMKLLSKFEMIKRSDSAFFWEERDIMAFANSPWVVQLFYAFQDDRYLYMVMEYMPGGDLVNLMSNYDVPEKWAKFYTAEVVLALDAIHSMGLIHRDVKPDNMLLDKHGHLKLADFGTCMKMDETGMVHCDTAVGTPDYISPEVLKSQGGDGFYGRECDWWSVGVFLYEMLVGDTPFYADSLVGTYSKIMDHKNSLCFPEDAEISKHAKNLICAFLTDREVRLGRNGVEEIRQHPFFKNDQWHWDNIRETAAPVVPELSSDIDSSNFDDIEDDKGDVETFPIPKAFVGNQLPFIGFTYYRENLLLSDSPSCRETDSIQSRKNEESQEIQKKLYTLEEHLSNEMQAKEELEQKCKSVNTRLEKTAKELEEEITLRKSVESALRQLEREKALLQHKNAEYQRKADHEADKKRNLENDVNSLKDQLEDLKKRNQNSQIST

Row | IC50 ([1]; Rattus norvegicus, A7R5, 1 h) [nM] | IC50 [2] [nM] | IC50 [1] [nM] | SMILES
1 | 1020 | 46.7 | – | CC(NC(=O)N1CCN(c2ccncc2F)CC1)c1cccc(F)c1Cl (single isomer, unassigned) [Example 22, N-(1-(2-Chloro-3-fluorophenyl)ethyl)-4-(3-fluoropyridin-4-yl)piperazine-1-carboxamide]
2 | – | 88.8 | 1440 | CC(NC(=O)N1CCN(c2ccncc2F)CC1)c1cccc(F)c1Cl (single isomer, unassigned) [Example 23, N-(1-(2-Chloro-3-fluorophenyl)ethyl)-4-(3-fluoropyridin-4-yl)piperazine-1-carboxamide]
3 | 122 | 6.5 | – | COc1cccc([C@@H](C)NC(=O)N2CCN(c3ccnc(F)c3)C[C@H]2C)c1 [Example 1, (R)-4-(2-Fluoropyridin-4-yl)-N—((R)-1-(3-methoxyphenyl)ethyl)-2-methylpiperazine-1-carboxamide]
4 | 1690 | 30.7 | – | COc1cccc([C@@H](C)OC(=O)N2CCN(c3ccnc(F)c3)C[C@H]2C)c1 [Example 2, (R)-1-(3-Methoxyphenyl)ethyl (R)-4-(2-fluoropyridin-4-yl)-2-methylpiperazine-1-carboxylate]
5 | 2410 | 59.9 | – | COc1ccc(Cl)c([C@@H](C)NC(=O)N2CCN(c3ccnc(F)c3)C[C@H]2C)c1 [Example 3, (R)—N—((R)-1-(2-Chloro-5-methoxyphenyl)ethyl)-4-(2-fluoropyridin-4-yl)-2-methylpiperazine-1-carboxamide]
6 | 676 | 22 | – | C[C@@H]1CN(c2ccnc(F)c2)CCN1C(=O)NCc1cccc2occc12 [Example 8, (R)—N-(Benzofuran-4-ylmethyl)-4-(2-fluoropyridin-4-yl)-2-methylpiperazine-1-carboxamide]
7 | 240 | 12.3 | – | Cc1cnc2cccc([C@@H](C)NC(=O)N3CCN(c4ccnc(F)c4)C[C@H]3C)n12 [Example 9, (R)-4-(2-Fluoropyridin-4-yl)-2-methyl-N—((R)-1-(3-methylimidazo[1,2-a]pyridin-5-yl)ethyl)piperazine-1-carboxamide]
8 | 411 | 32.7 | – | C[C@@H]1CN(c2ccnc(F)c2)CCN1C(=O)NCc1cccc2nn(C)cc12 [Example 11, (R)-4-(2-Fluoropyridin-4-yl)-2-methyl-N-((2-methyl-2H-indazol-4-yl)methyl)piperazine-1-carboxamide]
9 | 200 | 11.5 | – | C[C@@H]1CN(c2ccnc(F)c2)CCN1C(=O)N[C@H](C)c1cccc2c1OCO2 [Example 12, (R)—N—((R)-1-(Benzo[d][1,3]dioxol-4-yl)ethyl)-4-(2-fluoropyridin-4-yl)-2-methylpiperazine-1-carboxamide]
10 | ≥ 5000 | 4790 | – | C[C@@H]1CN(C(=O)N[C@H](C)c2ccccc2Cl)CCN1c1ccnc(F)c1 [Example 13, (R)—N—((R)-1-(2-Chlorophenyl)ethyl)-4-(2-fluoropyridin-4-yl)-3-methylpiperazine-1-carboxamide]
11 | 1390 | 75.9 | – | COc1cccc([C@@H](C)NC(=O)N2[C@H](C)CN(c3ccnc(F)c3)C[C@H]2C)c1 [Example 15, (2R,6R)-4-(2-Fluoropyridin-4-yl)-N—((R)-1-(3-methoxyphenyl)ethyl)-2,6-dimethylpiperazine-1-carboxamide]
12 | 122 | 7.6 | – | COc1cccc([C@@H](C)NC(=O)N2CCN(c3ccncc3F)CC2)c1 [Example 16, (R)-4-(3-fluoropyridin-4-yl)-N-(1-(3-methoxyphenyl)ethyl)piperazine-1-carboxamide]
13 | 1090 | 32.3 | – | COc1cccc([C@@H](C)OC(=O)N2CCN(c3ccncc3F)CC2)c1 [Example 17, (R)-1-(3-Methoxyphenyl)ethyl 4-(3-fluoropyridin-4-yl)piperazine-1-carboxylate]
14 | 2550 | 198 | – | COc1cccc([C@@H](C)NC(=O)N2CCN(c3ccncc3F)CC2)c1F [Example 18, (R)—N-(1-(2-Fluoro-3-methoxyphenyl)ethyl)-4-(3-fluoropyridin-4-yl)piperazine-1-carboxamide]
15 | ≥ 5000 | 581 | – | COc1cccc([C@@H](C)NC(=O)N2CCN(c3ccncc3F)CC2)c1Cl [Example 20]
16 | 902 | 37.5 | – | COc1ccc(Cl)c([C@@H](C)NC(=O)N2CCN(c3ccncc3F)CC2)c1 [Example 24, (R)—N-(1-(2-Chloro-5-methoxyphenyl)ethyl)-4-(3-fluoropyridin-4-yl)piperazine-1-carboxamide]

Row | IC50 ([1]; Rattus norvegicus, A7R5, 1 h) [nM] | IC50 [2] [nM] | IC50 [1] [nM] | SMILES
17 | 749 | 52.3 | – | COc1cccc(CNC(=O)N2CCN(c3ccncc3F)CC2)c1 [Example 25, 4-(3-Fluoropyridin-4-yl)-N-(3-methoxybenzyl)piperazine-1-carboxamide]
18 | 1160 | 65.5 | – | CC(NC(=O)N1CCN(c2ccncc2F)CC1)c1c(F)cccc1Cl (centres unmarked) [Example 26, N-(1-(2-Chloro-6-fluorophenyl)ethyl)-4-(3-fluoropyridin-4-yl)piperazine-1-carboxamide]
19 | 87.7 | 5.8 | – | C[C@@H](NC(=O)N1CCN(c2ccncc2F)CC1)c1cccc2c1OCO2 [Example 27, (R)—N-(1-(Benzo[d][1,3]dioxol-4-yl)ethyl)-4-(3-fluoropyridin-4-yl)piperazine-1-carboxamide]
20 | 27.2 | 2.8 | – | C[C@@H](NC(=O)N1CCN(c2ccncc2F)CC1)c1cccc2c1CCO2 [Example 28, (R)—N-(1-(2,3-Dihydrobenzofuran-4-yl)ethyl)-4-(3-fluoropyridin-4-yl)piperazine-1-carboxamide]
21 | 54.1 | 4.5 | – | C[C@@H](NC(=O)N1CCN(c2ccncc2F)CC1)c1cccc2occc12 [Example 29, (R)—N-(1-(Benzofuran-4-yl)ethyl)-4-(3-fluoropyridin-4-yl)piperazine-1-carboxamide]
22 | 301 | 22.4 | – | C[C@@H](NC(=O)N1CCN(c2ccncc2F)CC1)c1cccc2c1CC(C)(C)O2 [Example 30, (R)—N-(1-(2,2-Dimethyl-2,3-dihydrobenzofuran-4-yl)ethyl)-4-(3-fluoropyridin-4-yl)piperazine-1-carboxamide]
23 | 189 | 3.7 | – | Cc1cc2c([C@@H](C)NC(=O)N3CCN(c4ccncc4F)CC3)cccc2o1 [Example 31, (R)-4-(3-Fluoropyridin-4-yl)-N-(1-(2-methylbenzofuran-4-yl)ethyl)piperazine-1-carboxamide]
24 | 104 | 7.5 | – | Cc1cnc2cccc([C@@H](C)NC(=O)N3CCN(c4ccncc4F)CC3)n12 [Example 34, (R)-4-(3-fluoropyridin-4-yl)-N-(1-(3-methylimidazo[1,2-a]pyridin-5-yl)ethyl)piperazine-1-carboxamide]
25 | – | 142 | – | Cc1cnc2cccc([C@H](C)NC(=O)N3CCN(c4ccncc4F)CC3)n12 [Example 35, (S)-4-(3-fluoropyridin-4-yl)-N-(1-(3-methylimidazo[1,2-a]pyridin-5-yl)ethyl)piperazine-1-carboxamide]
26 | – | 86.6 | – | C[C@H](NC(=O)N1CCN(c2ccncc2F)C[C@H]1C)c1cccc2nn(C)cc12 [Example 72, (R)-4-(3-Fluoropyridin-4-yl)-2-methyl-N—((S)-1-(2-methyl-2H-indazol-4-yl)ethyl)piperazine-1-carboxamide]
27 | – | 4680 | – | COc1cc(F)cc(CN2C[C@H]3CN(c4ccncc4F)CCN3C2=O)c1 [Example 85, (R)-2-(3-Fluoro-5-methoxybenzyl)-7-(3-fluoropyridin-4-yl)hexahydroimidazo[1,5-a]pyrazin-3(2H)-one]
28 | – | 563 | – | C[C@@H]1CN(c2ccncc2F)C[C@@H](C)N1C(=O)NCc1ccccc1Cl [Example 92, (2R,6R)—N-(2-Chlorobenzyl)-4-(3-fluoropyridin-4-yl)-2,6-dimethylpiperazine-1-carboxamide]
29 | – | 1060 | – | O=C(NCc1cccc(OC(F)F)c1)N1CCN(c2ccnc(F)c2)CC1 [Example 103]
30 | – | 102 | – | COc1cccc(CNC(=O)N2CCN(c3ccnc(F)c3)[C@@H](C)C2)c1 [Example 121]
31 | – | 802 | – | C[C@H]1CN(C(=O)NCc2cccc(OC(F)F)c2)CCN1c1ccnc(F)c1 [Example 122]
32 | – | 3070 | – | C[C@@H]1CN(c2ccncc2F)CCN1C(=O)N[C@H](C)c1cccc2c1N(C)CCO2 [Example 143]
